From US10624875B2, “Methods and compositions for treating schizophrenia” (The Johns Hopkins University, priority 2012, dated 2020)

How the values were obtained:
[1] = tested on: Age-Impaired (AI) Long-Evans rats; experiment: Morris Water Maze (MWM) retention trial, spatial memory; format: in vivo, rat; settings: retention trial 24 hours after two training days
Method: The MWM apparatus consists of a large, circular pool (diameter 1.83 m; height, 0.58 m) filled with water (27° C.) that is made opaque through the addition of non-toxic pigment or some other substance. In the typical “hidden platform” version of the test, rats are trained to find a camouflaged white escape platform (height, 34.5 cm) that is positioned in the center of one quadrant of the maze about 1.0 cm below the water surface. This platform can be retracted to the bottom of the tank or raised to its normal position from outside the maze during behavioral testing. The location of the platform remains constant from trial to trial. Because there are no local cues that mark the position of the platform, the rat's ability to locate it efficiently from any starting position at the perimeter of the pool depends on using information surrounding the maze. The maze is surrounded by black curtains to which white patterns are affixed to provide a configuration of spatial cues. A second platform (height 37.5 cm), with its surface painted black is elevated 2 cm above the water surface during cue training to control for factors unrelated to cognition. The behavior of a rat in the pool is recorded by a camera that is suspended 2.5 m above the center of the pool. […] At the completion of the protocol using the hidden platform, rats are assessed for cue learning using the visible platform. […]

aMCI subjects = experiment: Verbal Paired Associates Test - Delayed Recall; format: in vivo, human; settings: 125 mg twice a day for two weeks
Method: A within-subjects trial of 8 weeks duration, involving 17 amnestic MCI (aMCI) subjects and 17 age-matched controls with a low dose treatment of levetiracetam is conducted. During the course of the study, each aMCI subject receives both drug and placebo treatments separately in two periods of two weeks each, with the order of treatments among different aMCI subjects counterbalanced (see FIG. 7). Age-matched control subjects treated with placebo serve as a further control. Cognitive testing and fMRI imaging data are obtained from the subjects after each two week period of drug/placebo treatment.
All participants undergo neuropsychological evaluation at the time of assessment for treatment efficacy (Visits 1 and 2), as well as at the Baseline Visit. […]
As described above, the drug treatment period is the two weeks preceding Visit 1 or 2 (with the two week period preceding the other Visit being the placebo phase). For the subjects receiving the drug treatment, half a scored 250 mg tablet of levetiracetam is used to achieve a dose of […], which is approximately 3.6 mg/kg/day (assuming an average adult human weight of 70 kg).

`CC[C@@H](C(N)=O)N1CCCC1=O` [levetiracetam, (2S)-2-(2-oxopyrrolidin-1-yl) butanamide] was tested, and the “time spent in the target quadrant versus vehicle-treated controls” value ([1]; 5 mg/kg/day i.p.) was “did not significantly improve”, the “time spent in the target annulus” value ([1]; 10 mg/kg/day i.p.) was “effectiveness of the 10 mg/kg/day levetiracetam treatment was also seen” and the “performance in Verbal Paired Associates Test - Delayed Recall” value (aMCI subjects) was “fail to rescue performance”.
